Here are results for six cell lines from the supplement of paper PMC10307832.

Common to all, as to assay: relative viability (nuclei count vs DMSO), 5 days (fraction); higher = more cells survive
Compound in assay [1]: COc1cc(Nc2ncc3c(n2)-c2ccc(Cl)cc2C(c2c(F)cccc2OC)=NC3)ccc1C(=O)O [Alisertib] + CC(=O)c1c(C)c2cnc(Nc3ccc(N4CCNCC4)cn3)nc2n(C2CCCC2)c1=O [Palbociclib] (partner 0.5 µM)
In outline: (§1)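 Five library-drug doses in √10 steps were combined with a fixed anchor-drug dose, or a single drug was given alone, by pin tool to lung cancer cell lines in 1536-well plates the day after seeding. Nuclei were stained and counted after 5 days. Relative viability is the nuclei count in treated wells over that in vehicle wells, taken as the median of duplicate plates.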

Compound in assay [2]: COc1cc(Nc2ncc3c(n2)-c2ccc(Cl)cc2C(c2c(F)cccc2OC)=NC3)ccc1C(=O)O [Alisertib] + C[C@@H](Oc1cc(-c2cnn(C3CCNCC3)c2)cnc1N)c1c(Cl)ccc(F)c1Cl [Crizotinib] (partner 1 µM)
A digest of the protocol:
as §1

Compound in assay [3]: COc1cc(Nc2ncc3c(n2)-c2ccc(Cl)cc2C(c2c(F)cccc2OC)=NC3)ccc1C(=O)O [Alisertib] + NC(=O)Nc1cc(-c2cccc(F)c2)sc1C(=O)N[C@H]1CCCNC1 [AZD7762] (partner 0.2 µM)
In outline:
as §1

Compound in assay [4]: COc1cc(Nc2ncc3c(n2)-c2ccc(Cl)cc2C(c2c(F)cccc2OC)=NC3)ccc1C(=O)O [Alisertib] + O=C(CCCCCCC(=O)Nc1ccccc1)NO [Vorinostat] (partner 1 µM)
A digest of the protocol:
as §1

Take NCI-H1651: the relative viability came to 0.476 in assay [1] (first compound 0.005 µM); 0.486 in assay [1] (first compound 0.01581 µM); 0.333 in assay [1] (first compound 0.05 µM); 0.21 in assay [1] (first compound 0.1581 µM); 0.189 in assay [1] (first compound 0.5 µM); 0.898 in assay [2] (first compound 0.005 µM). Moreover, the relative viability in assay [2] (first compound 0.01581 µM) came out at 0.807; in assay [2] (first compound 0.05 µM), 0.41; in assay [2] (first compound 0.1581 µM), 0.204; in assay [2] (first compound 0.5 µM), 0.256; in assay [3] (first compound 0.005 µM), 0.456; in assay [3] (first compound 0.01581 µM) it was 0.455. Moreover, the relative viability turned out to be 0.385 in assay [3] (first compound 0.05 µM); 0.199 in assay [3] (first compound 0.1581 µM); 0.129 in assay [3] (first compound 0.5 µM); 0.517 in assay [4] (first compound 0.005 µM); 0.461 in assay [4] (first compound 0.01581 µM); 0.325 in assay [4] (first compound 0.05 µM). Further, the results for the relative viability in assay [4] (first compound 0.1581 µM) and in assay [4] (first compound 0.5 µM) were 0.118 and 0.135, respectively.

For NCI-H1666, the relative viability in assay [1] (first compound 0.005 µM) was 0.609; in assay [1] (first compound 0.01581 µM), 0.585; in assay [1] (first compound 0.05 µM), 0.595; in assay [1] (first compound 0.1581 µM), 0.551; in assay [1] (first compound 0.5 µM) it was 0.489; in assay [2] (first compound 0.005 µM), 0.934. Further, the relative viability in assay [2] (first compound 0.01581 µM) amounted to 0.729; in assay [2] (first compound 0.05 µM), 0.474; in assay [2] (first compound 0.1581 µM), 0.349; in assay [2] (first compound 0.5 µM), 0.363; in assay [3] (first compound 0.005 µM) it was 0.768; in assay [3] (first compound 0.01581 µM) it was 0.698. The relative viability in assay [3] (first compound 0.05 µM) was 0.636; in assay [3] (first compound 0.1581 µM), 0.477; in assay [3] (first compound 0.5 µM) it was 0.375; in assay [4] (first compound 0.005 µM), 1.01; in assay [4] (first compound 0.01581 µM) it was 0.995; in assay [4] (first compound 0.05 µM), 0.846. For the same cell line, the relative viability in assay [4] (first compound 0.1581 µM) is 0.617; in assay [4] (first compound 0.5 µM), 0.555.

As for NCI-H1734, the relative viability in assay [1] (first compound 0.005 µM) amounted to 0.397; in assay [1] (first compound 0.01581 µM), 0.325; in assay [1] (first compound 0.05 µM), 0.296; in assay [1] (first compound 0.1581 µM), 0.245; in assay [1] (first compound 0.5 µM) it was 0.188; in assay [2] (first compound 0.005 µM) it was 0.669. Moreover, the relative viability in assay [2] (first compound 0.01581 µM) was found to be 0.523; in assay [2] (first compound 0.05 µM), 0.357; in assay [2] (first compound 0.1581 µM), 0.227; in assay [2] (first compound 0.5 µM) it was 0.155; in assay [3] (first compound 0.005 µM), 0.501; in assay [3] (first compound 0.01581 µM) it was 0.366. The relative viability was determined as 0.23 in assay [3] (first compound 0.05 µM); 0.18 in assay [3] (first compound 0.1581 µM); 0.149 in assay [3] (first compound 0.5 µM); 0.604 in assay [4] (first compound 0.005 µM); 0.519 in assay [4] (first compound 0.01581 µM); 0.302 in assay [4] (first compound 0.05 µM). For the same cell line, the relative viability in assay [4] (first compound 0.1581 µM) was determined as 0.221; in assay [4] (first compound 0.5 µM), 0.189.

Turning to NCI-H1755, the relative viability in assay [1] (first compound 0.005 µM) is 0.408; in assay [1] (first compound 0.01581 µM) it was 0.432; in assay [1] (first compound 0.05 µM), 0.445; in assay [1] (first compound 0.1581 µM) it was 0.428; in assay [1] (first compound 0.5 µM), 0.384; in assay [2] (first compound 0.005 µM), 0.853. In addition, the relative viability in assay [2] (first compound 0.01581 µM) stood at 0.73; in assay [2] (first compound 0.05 µM) it was 0.415; in assay [2] (first compound 0.1581 µM) it was 0.366; in assay [2] (first compound 0.5 µM), 0.294; in assay [3] (first compound 0.005 µM) it was 0.478; in assay [3] (first compound 0.01581 µM), 0.427. Also, the relative viability turned out to be 0.332 in assay [3] (first compound 0.05 µM); 0.328 in assay [3] (first compound 0.1581 µM); 0.259 in assay [3] (first compound 0.5 µM); 0.768 in assay [4] (first compound 0.005 µM); 0.776 in assay [4] (first compound 0.01581 µM); 0.433 in assay [4] (first compound 0.05 µM). Moreover, the relative viability in assay [4] (first compound 0.1581 µM) was 0.386; in assay [4] (first compound 0.5 µM), 0.329.

As to NCI-H1915, the relative viability in assay [1] (first compound 0.005 µM) was found to be 0.497; in assay [1] (first compound 0.01581 µM), 0.455; in assay [1] (first compound 0.05 µM) it was 0.29; in assay [1] (first compound 0.1581 µM), 0.234; in assay [1] (first compound 0.5 µM), 0.151; in assay [2] (first compound 0.005 µM), 0.777. In addition, the relative viability in assay [2] (first compound 0.01581 µM) came to 0.721; in assay [2] (first compound 0.05 µM), 0.307; in assay [2] (first compound 0.1581 µM), 0.317; in assay [2] (first compound 0.5 µM), 0.192; in assay [3] (first compound 0.005 µM), 0.531; in assay [3] (first compound 0.01581 µM) it was 0.597. The relative viability was 0.277 in assay [3] (first compound 0.05 µM); 0.254 in assay [3] (first compound 0.1581 µM); 0.206 in assay [3] (first compound 0.5 µM); 0.496 in assay [4] (first compound 0.005 µM); 0.473 in assay [4] (first compound 0.01581 µM); 0.374 in assay [4] (first compound 0.05 µM). Further, the relative viability was 0.206 in assay [4] (first compound 0.1581 µM) and 0.161 in assay [4] (first compound 0.5 µM).

Take NCI-H1944: the relative viability in assay [1] (first compound 0.005 µM) came out at 0.33; in assay [1] (first compound 0.01581 µM) it was 0.357; in assay [1] (first compound 0.05 µM), 0.27; in assay [1] (first compound 0.1581 µM) it was 0.187; in assay [1] (first compound 0.5 µM), 0.159; in assay [2] (first compound 0.005 µM), 1.05. Moreover, the relative viability is 1.04 in assay [2] (first compound 0.01581 µM); 0.504 in assay [2] (first compound 0.05 µM); 0.386 in assay [2] (first compound 0.1581 µM); 0.222 in assay [2] (first compound 0.5 µM); 0.531 in assay [3] (first compound 0.005 µM); 0.54 in assay [3] (first compound 0.01581 µM). For the same cell line, the relative viability is 0.421 in assay [3] (first compound 0.05 µM); 0.147 in assay [3] (first compound 0.1581 µM); 0.147 in assay [3] (first compound 0.5 µM); 0.573 in assay [4] (first compound 0.005 µM); 0.52 in assay [4] (first compound 0.01581 µM); 0.339 in assay [4] (first compound 0.05 µM). Further, the relative viability in assay [4] (first compound 0.1581 µM) turned out to be 0.183; in assay [4] (first compound 0.5 µM), 0.188.
